Results: patent publication US4590199A, “Antihistaminic 2-(amino ethylamino) pyridines” (priority 1983, dated 1986)

How the values were obtained:
[1] = biological target: T1, histamine response of longitudinal muscle isolated from the intact ileum of guinea-pigs (Cavia porcellus, UniProt P31389); assay: In vitro antihistaminic activity (histamine concentration-response curves, Schild plot); format: cell-based, guinea-pig (Hartley, male); details: for Kb: guinea-pig ileum longitudinal muscle, one hour incubation with test compound, Schild plot, read-out: pA2 (converted); for antihistamine activity (in words): of the compounds of formula (I)
T1 construct: The longitudinal muscle was isolated from the intact ileum of guinea-pigs; from tissue; host or cells: longitudinal muscle of guinea-pig ileum (Hartley, male)
T1 sequence (P31389 whole entry): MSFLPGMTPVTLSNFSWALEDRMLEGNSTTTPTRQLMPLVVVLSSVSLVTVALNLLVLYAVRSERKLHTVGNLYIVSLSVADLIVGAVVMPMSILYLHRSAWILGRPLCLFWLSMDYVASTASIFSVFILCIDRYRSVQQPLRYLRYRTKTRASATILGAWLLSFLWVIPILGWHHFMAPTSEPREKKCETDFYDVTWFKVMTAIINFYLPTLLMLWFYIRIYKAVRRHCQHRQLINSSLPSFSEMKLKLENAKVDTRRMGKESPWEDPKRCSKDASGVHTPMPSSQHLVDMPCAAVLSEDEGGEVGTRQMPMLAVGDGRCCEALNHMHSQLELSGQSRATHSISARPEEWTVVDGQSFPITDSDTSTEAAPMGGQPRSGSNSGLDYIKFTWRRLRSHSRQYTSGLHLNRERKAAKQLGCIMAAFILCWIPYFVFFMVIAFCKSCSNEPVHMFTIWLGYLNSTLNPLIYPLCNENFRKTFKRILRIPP
Method: In vitro antihistaminic activity: The longitudinal muscle was isolated from the intact ileum of guinea-pigs (Hartley, male 250-400 g) and placed in an organ bath under 300 mg tension. After one hour of equilibration, cumulative concentration-response curves (Van Rossum, J. M., Arch. Int. Pharmacodyn. Ther. 143, 299-330, 1963) to histamine were obtained. Following washing, the tissues were incubated for one hour with the test compound and then a second histamine concentration-response curve was run. Shifts to the right of the agonist concentration-response curve produced by the antagonists were used to construct Schild plots (Arunlakshana, O. and Schild, H. O., Br. J. Pharmacol: 14, 48-58, 1959). Regression of Log (dr-1) on Log [B], where dr is an equiactive response in the presence and absence of antagonist and [B] is the molar concentration of antagonist, allowed an estimate of pA2, i.e. the negative log of the concentration of antagonist which shifts the control histamine concentration-response curve 2X to the right.

[2] = antihistamines now in use; causes dryness of mouth, blurred vision and tachycardia; cited from earlier work
[3] = human, in vivo; cited from earlier work

Kb [1] [nM]	antihistamine activity (in words) [1]	Compound	anticholinergic activity [2]	sedation and drowsiness [3]
251	particularly active	COc1ccc(CN(CCN(C)C)c2cccc(/C=C/C(=O)O)n2)cc1 [Compound A, (E)-3-(6-(N-(2-dimethylaminoethyl)-4-methoxybenzylamino)-2-pyridyl)acrylicacid]		
		CC(CN1c2ccccc2Sc2ccccc21)N(C)C (centres unmarked) [promethazine]	varying degrees of anticholinergic activity	
1260	particularly active	COc1ccc(CN(CCN(C)C)c2ccc(C(=O)O)cn2)cc1 [Compound B, 6-(N-(2-dimethylaminoethyl)-4-methoxybenzylamino) nicotinic acid]		
		COc1ccc(CN(CCN(C)C)c2ccccn2)cc1 [Pyrilamine, N,N-dimethyl-N'-(4-methoxyphenylmethyl)-N'-2-pyridyl-1,2-ethanediamine]	varying degrees of anticholinergic activity	produces sedation and drowsiness in varying degrees in most patients
		Cc1ccc(/C(=C\CN2CCCC2)c2ccccn2)cc1 [triprolidine]	varying degrees of anticholinergic activity	
